{"source": "patent US20250327029A1", "about": "“PROCESS FOR THE OBTENTION OF INVARIANT NATURAL KILLER T CELLS” (Université de Lorraine, priority 2022, published 2025)", "tested_on": "CD4^− iNKT cells", "test": "Expansion of iNKT cells from PBMC cultured with alpha-GalCer and a cytokine (IL-15 or IL-2)", "type": "cell-based, human", "protocol": "The expansion factor of iNKT cells is more preferably comprised between 100 and 10 000. The “expansion factor” corresponds to the number of iNKT cells obtained at day 14 of expansion divided by the number of iNKT cells put in culture at day 0. The number of cells is determined by routinely used techniques by the skilled person (cell couting and flow cytometry staining to determine the percentage of iNKT cells among total PBMCs).\nPBMC obtained by centrifugation of fresh whole blood on density gradient were culture at the concentration of 5.10^5 cells/mL in RPMI 1640 advanced medium (ref: 11530446, Gibco®), with 5% SVF v/v, 4 mM glutamine, 100 ng/mL alpha-galactoside-ceramide (KRN-7000, Funakoshi). Cultures were performed in a cell culture bag in a normoxia incubator at 37° C. and 5% CO2.\nOn day 1 of culture, 10 ng/mL of IL-15 were added.\nOn day 7 of culture, 50% of the medium was changed and 10 ng/mL of IL-15 were introduced.\nOn day 10 of the culture, 50% of the medium was changed and 10 ng/mL of IL-15 were introduced.\nOn day 14 of the culture, the obtained iNKT cells were sorted by performing a magnetic CD4^+ cell isolation (CD4 MicroBeads kit commercialized by Miltenyi Biotec Inc.), retrieving the negative fraction, performing a magnetic iNKT^+ isolation on said fraction (Anti-iNKT MicroBeads kit commercialized by Miltenyi Biotec Inc.) and retrieving the positive fraction corresponding to the isolated CD4^− iNKT cell population."}
{"substance": "IL-15: human cytokine that stimulates the proliferation of T-lymphocytes; Uniprot P40933", "values": [{"measurement": "mean % CD4^− iNKT cells±SEM", "setting": "D14 of culture, n=14", "value": "60.6±5.23", "unit": "%"}, {"measurement": "mean expansion factor of CD4^− iNKT cells±SEM", "setting": "cytokine present during expansion phase, n=17, cells at day 14 / cells at day 0", "value": "652±128"}, {"measurement": "CD4^− iNKT cells among the expanded iNKT cells", "setting": "end of 14-day culture, healthy donor PBMC", "value": 61, "unit": "%"}, {"measurement": "percentage of iNKT cells at the end of the 14-day culture (% among total T lymphocytes)", "setting": "healthy donor PBMC, 0.82% iNKT at D0", "value": 81.5, "unit": "%"}]}
